The values below come from patent publication US8637237B2, “Methods, compositions, and systems for the identification of species-specific or developmental stage-specific insecticides” (The University of North Carolina at Greensboro, priority 2003, dated 2014).

The target in data set [1] is T1, GGEc (Drosophila melanogaster, UniProt P34021).
T1 construct: were replaced by EcR LBD amino acids (EcR amino acids 329 to 878); expressed in transfected cells; host or cells: CHO
T1 sequence (P34021 329-878): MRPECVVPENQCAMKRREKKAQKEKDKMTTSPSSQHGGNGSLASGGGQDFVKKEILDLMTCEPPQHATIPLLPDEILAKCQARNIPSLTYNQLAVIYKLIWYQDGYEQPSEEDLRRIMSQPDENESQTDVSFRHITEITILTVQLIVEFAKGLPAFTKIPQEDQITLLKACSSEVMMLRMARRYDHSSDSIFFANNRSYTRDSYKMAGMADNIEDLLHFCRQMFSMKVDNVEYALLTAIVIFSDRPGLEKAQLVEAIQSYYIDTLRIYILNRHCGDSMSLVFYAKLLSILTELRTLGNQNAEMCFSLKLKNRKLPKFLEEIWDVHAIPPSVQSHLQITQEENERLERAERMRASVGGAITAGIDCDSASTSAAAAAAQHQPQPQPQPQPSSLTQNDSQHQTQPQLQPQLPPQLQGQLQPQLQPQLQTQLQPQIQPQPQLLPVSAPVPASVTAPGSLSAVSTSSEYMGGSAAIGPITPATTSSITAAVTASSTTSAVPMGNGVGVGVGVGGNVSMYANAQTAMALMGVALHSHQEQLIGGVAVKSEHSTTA
The data set can be described thus: GGEc chimera (GR amino terminus and DBD, EcR LBD) with RXR in CHO cells. Type of data set: cell-based. An excerpt:
For these experiments, the luciferase reporter construct was used. To obviate influences from other transcription factors, results were normalized using a reporter plasmid from which CAT expression is driven by a minimal promoter consisting of dimerized GREs linked upstream of a 13 base pair TATA box DNA element derived from the adenovirus E1B gene.
In this experiment, GGEc and RXR were transfected into CHO cells with either a CAT or a luciferase reporter plasmid containing 1.5 kilobase pairs of the glucocorticoid-inducible mouse mammary tumor virus (MTV) promoter.
In these experiments, CHO cells were transfected with a GGEc-expressing plasmid, a mouse RXRα expression plasmid, and an adenovirus E1b TATA-(GRE)2-CAT reporter plasmid. The GGEc plasmid was eliminated from DNA mixtures added to cells transfected in parallel. CAT activities were measured from lysates of cells from triplicate wells treated with ethanol vehicle, juvocimene (20 μM), muristerone A (0.2 μM), or both.
In these experiments, CHO cells were transfected with DNAs as described above but ubiquinone-2 (10 μM) was substituted for juvocimene.

Data set [2] concerns the target T2, FXR (Rattus norvegicus, UniProt Q62735).
T2 sequence (Q62735 1-469): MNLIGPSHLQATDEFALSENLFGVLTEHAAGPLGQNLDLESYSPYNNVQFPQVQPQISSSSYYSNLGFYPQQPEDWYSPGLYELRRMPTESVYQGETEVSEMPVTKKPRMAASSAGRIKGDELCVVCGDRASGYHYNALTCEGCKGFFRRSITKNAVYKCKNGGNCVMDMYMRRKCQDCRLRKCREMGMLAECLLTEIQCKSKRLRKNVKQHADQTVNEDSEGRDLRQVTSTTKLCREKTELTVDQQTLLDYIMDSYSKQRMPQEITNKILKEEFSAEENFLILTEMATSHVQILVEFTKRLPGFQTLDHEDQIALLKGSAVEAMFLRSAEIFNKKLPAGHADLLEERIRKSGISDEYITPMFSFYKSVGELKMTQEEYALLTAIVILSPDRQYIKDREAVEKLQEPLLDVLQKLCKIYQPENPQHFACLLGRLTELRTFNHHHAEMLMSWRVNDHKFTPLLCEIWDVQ
T2 sequence (P28700 1-467 partner): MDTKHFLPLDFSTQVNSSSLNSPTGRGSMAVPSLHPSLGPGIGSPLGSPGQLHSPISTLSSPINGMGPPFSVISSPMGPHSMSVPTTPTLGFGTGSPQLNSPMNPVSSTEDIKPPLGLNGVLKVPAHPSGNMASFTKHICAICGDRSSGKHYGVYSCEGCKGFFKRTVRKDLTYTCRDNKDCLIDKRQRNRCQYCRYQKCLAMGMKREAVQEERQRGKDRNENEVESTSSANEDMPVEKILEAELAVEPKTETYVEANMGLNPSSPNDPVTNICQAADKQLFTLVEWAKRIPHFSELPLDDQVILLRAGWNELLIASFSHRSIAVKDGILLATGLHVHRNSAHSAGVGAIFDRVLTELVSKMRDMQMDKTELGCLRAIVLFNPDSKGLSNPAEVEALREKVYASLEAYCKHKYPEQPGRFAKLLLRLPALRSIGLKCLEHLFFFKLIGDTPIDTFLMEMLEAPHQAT
The data set can be described thus: cell-based. The method in brief: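 CHO cells co-transfected with FXR, mouse RXRα and a (EcRE)5-ΔMTV-CAT reporter, with β-galactosidase for normalization. An RXR-dependent CRBPII-CAT reporter was run in parallel. Cells were exposed to candidate juvenoids for 24 h; CAT activity normalized to β-gal and expressed as fold induction over vehicle controls.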

The target of data set [3] is T3, GRdEcR/RXR (Drosophila melanogaster, UniProt P34021).
T3 construct: ligation of a Not I-Bam HI fragment containing the DBD and LBD of a modified EcR cDNA, EcRnx; expressed in transfected cells; host or cells: CHO
T3 sequence (P34021 259-878 V259R/Q260P/E261P/P331L limits assumed): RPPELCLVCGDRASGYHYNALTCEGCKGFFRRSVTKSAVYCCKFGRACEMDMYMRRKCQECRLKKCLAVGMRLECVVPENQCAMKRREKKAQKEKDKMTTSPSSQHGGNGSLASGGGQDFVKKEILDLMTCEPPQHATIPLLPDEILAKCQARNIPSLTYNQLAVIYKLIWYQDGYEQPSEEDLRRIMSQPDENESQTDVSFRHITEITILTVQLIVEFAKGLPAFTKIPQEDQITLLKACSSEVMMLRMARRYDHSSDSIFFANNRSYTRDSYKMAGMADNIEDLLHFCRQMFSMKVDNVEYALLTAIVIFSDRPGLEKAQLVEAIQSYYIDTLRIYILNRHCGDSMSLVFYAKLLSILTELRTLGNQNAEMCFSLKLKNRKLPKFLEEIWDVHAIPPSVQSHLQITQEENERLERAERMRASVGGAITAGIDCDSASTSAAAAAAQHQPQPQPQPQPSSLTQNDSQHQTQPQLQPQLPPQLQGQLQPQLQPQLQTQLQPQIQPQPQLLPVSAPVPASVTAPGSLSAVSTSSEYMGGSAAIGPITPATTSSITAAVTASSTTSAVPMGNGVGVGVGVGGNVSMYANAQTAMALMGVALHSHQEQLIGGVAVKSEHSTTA
T3 sequence (P28700 1-467 partner): T2 sequence (P28700 1-467 partner)
The experiment in a line: GRdEcR (GEcEc) chimera with RXR, (EcRE)5-ΔMTV reporter in CHO cells. The class given is cell-based. Conditions: 25 μM insecticide; 10 nM MUR. How it is done: These experiments employed a mammalian cell culture system using Chinese hamster ovary cells (CHO) to evaluate the transcriptional function of Drosophila melanogaster EcR and USP using methods described previously (U.S. Patent Application Publication No: 2005/0049230; Henrich et al, 2003). Cells were seeded in 6-well polypropylene culture plates (Falcon) with 10^5 cells per well on the day prior to transfection. Transfection was subsequently performed using either calcium phosphate (Kitareewan et al., 1996, Mol. Biol. Cell, 7:1153-1196) or a GenePorter reagent (Gene Therapy Systems, Inc; San Diego, Calif.) following manufacturer's protocols. Each well received 1.25 μg of (EcRE)5-ΔMTV-CAT (five copies of the hsp27 EcRE inserted into an mouse mammary tumor virus (MTV) promoter upstream of the chloramphenicol acetyltransferase (CAT) gene) or (EcRE)5-ΔMTV-LUC (the same promoter attached to firefly luciferase), 1.25 μg of pCH111 (SV40 early promoter linked to the β-galactosidase gene) to normalize CAT activity, and 0.25 μg of each expression plasmid (EcR, FXR, RXR, USP) that was tested. The cells were incubated with plasmid DNA for seven hours and then washed with 1×PBS. Muristerone A (murA; Alexis Biochemicals) or 20-hydroxyecdysone (20E; Sigma) dissolved in ethanol to a concentration of 10 mM was diluted as necessary to the final assay concentration (FAC) in 2 ml of fresh incubation medium that was then applied to the cells. Similarly, JHIII (Sigma) was dissolved in dimethyl sulfoxide (DMSO) to a concentration of […] and diluted into the incubation medium to its final assay concentration (20, 40, 80, 160 μM). […] A corresponding volume of ethanol and DMSO were added to control cells for all experiments. For all experiments, the cells were allowed to incubate with the medium for 24 hours before collection and cell lysates were prepared by described methods (Kitareewan et al., 1996). Both β-galactosidase and CAT reporter activity were measured based on previously used methods (Kitareewan et al, 1996). Luciferase assays using luciferrin followed the specifications of the manufacturer.
Transcriptional activity, measured as ^14C-chloramphenicol counts (for measuring CAT activity) or relative luciferase activity (RLU) was quantified for each cell lysate. The counts were then normalized by adjusting for differences in β-galactosidase activity, since β-galactosidase expression is controlled by a constitutive promoter and provides an estimate of cell mass. Data were normalized as fold-induction based on differences in reporter gene activity between hormonally treated and control cells.
In an initial series of studies, a GRdEcR chimera that consists of the rat glucocorticoid receptor (GR) activation domain attached to the EcR DBD and LBD (FIG. 1) was cotransfected along with mRXRα into CHO cells. The response of transfected cells to murA was measured using a (EcRE)5-ΔMTV-CAT reporter plasmid that carries five tandem repeats of the hsp27 EcRE linked to the MTV (mouse mammary tumor virus) promoter and the chloramphenicol acetyltransferase gene (CAT).
The prominent candidate for this JH-responsive macromolecule in insects is the structurally-related ecdysone receptor (EcR). Like FXR, EcR heterodimerizes with RXR and binds to the hsp27 ecdysone-responsive DNA element (Forman et al., 1995), but distinctively activates transcription in response to muristerone A (MurA or MUR), a synthetic ecdysone (Yao et al., 1992). […] In the experiments shown in FIG. 15A, muristerone A (MUR) was added at the indicated doses in ethanol vehicle, and increasing amounts of JH III (12, 25, or 50 μM) were added (underlying triangles). Numbers over bars indicate the ratio of the GEcEc-dependent activity produced by 50 μM JH III in the presence of the indicated dose of MUR to the activity produced by MUR alone. Relative light units (RLU) from firefly luciferase in cell lysates are expressed relative to renilla luciferase (Promega).

Data set [4] concerns insect. The settings on record: from Schneiderman and Gilbert, Science 143; cited from earlier work.
Data set [5] deals with tobacco hornworm larvae. Conditions: cited from earlier work.

Turning to `COC1=C(OC)C(=O)C(C/C=C(\C)CCC=C(C)C)=C(C)C1=O` [U2, ubiquinone-2], the “GGEc-dependent activity increase over MUR” value in data set [1] (10 μM ubiquinone-2, muristerone A) is listed as 7 times. Further, in data set [2] (dose not stated), the “FXR-dependent activity, induction” value is 7 fold.

In the case of `CCOP(=S)(OCC)Oc1nc(Cl)c(Cl)cc1Cl` [chlorpyrifos], the “GEcEc-dependent activity, insecticide plus MUR over MUR alone” value (shortened to “GEcEc-dependent activity … over MUR alone”) in data set [3] is given as “nine times”. Further, the “FXR-dependent activity, induction” value in data set [2] (25 μM) is “potencies and efficacies like farnesol”.

On to `CCOP(=S)(OCC)Oc1ccc2c(C)c(Cl)c(=O)oc2c1` [coumaphos], for which, in data set [3], the “GEcEc-dependent activity … over MUR alone” value was “between two and three times”.

On to `CCOP(=S)(OCC)Oc1cc(C)nc(C(C)C)n1` [diazinon], for which the “GEcEc-dependent activity … over MUR alone” value in data set [3] is “between two and three times”.

One may read the EC50 as the concentration that produces a half-maximal response. The low end stands for higher potency in that assay, the high end for lower potency in that assay. As to `C=CC(C)(O)CCC=C(C)CCC=C(C)C` (stereo not shown) [nerolidol], in data set [4], the “JH ACTIVITY (units/g)” value was 8.9 units/g. For the same molecule, in data set [1] (50 μM compound, 0.2 μM MUR), the “GGEc transcription with compound plus MUR relative to MUR alone” value is “between two and four times more”. Also, in data set [2], it took 15 µM to reach a half-maximal effect (EC50). For the same molecule, the “FXR-dependent CAT activity, induction” value in data set [2] (50 μM) is given as 9 fold. Moreover, in data set [2] (final dose of 50 ∝M, 1 = induction less than 2-fold below cytotoxic doses), the “FXR ACTIVITY (fold-induction)” value is 9 fold-induction.

Take `CC1(C)C(C=C(Cl)Cl)C1C(=O)OCc1cccc(Oc2ccccc2)c1` (stereo not shown) [permethrin]: the “GEcEc-dependent activity … over MUR alone” value in data set [3] is “between two and three times”.

As for `Cn1c(=O)c2[nH]cnc2n(C)c1=O` [theophylline], the “concentration in tobacco hornworm larvae” value in data set [5] (three days after eating tomato leaves sprayed with 1% theophylline) was 4000 µM. Besides, the “reduction of leaf consumption” value in data set [5] (tomato leaves sprayed with 1% theophylline) is on record as “by half”. Also, the “FXR-dependent activity, induction” value in data set [2] (3 mM) is given as 12 fold; in data set [2] (theophylline (3 mM) mixed with 8-Br-cAMP (1 mM)), “more than 100 fold”. Further, the “FXR ACTIVITY (fold-induction)” value in data set [2] (dose 3000 μM) was found to be 12 fold-induction.

As for precocene, the “GEcEc-dependent activity … over MUR alone” value in data set [3] was “between two and three times”. For the same molecule, in data set [2], the “inhibition of FXR-dependent activity in the CHO cell-based assay” value is “did not inhibit”.
